Source: patent US20100056516A1 (priority 2006, published 2010)

Experiments:
HXB2 virus = assay: microbe, parasite or virus in culture; type: cell-based, HIV; details: Human immunodeficiency virus 1, HXB2, HeLaP4-2, read-out: antiviral IC50 (SCIA-B)
Protocol: An assay for measuring the inhibition of acute HIV infection with HeLa P4-2 cells in a single cycle infectivity assay (SCIA-A) was conducted in accordance with Joyce, J. G., et al., J. Biol. Chem., 2002, 277, 45811, Hazuda, D. J. et al., Science, 2000, 287, 646, and Kimpton, J. et al, J. Virol. 1992, 66, 2232. Infectious virus was produced by transfecting 293T cells with HIV proviral DNA in which the integrase gene was derived from a IIIB isolate and the remainder of the HIV genome was derived from the NL4-3 isolate.
This assay B for measuring the inhibition of acute HIV infection with HeLa P4-2 cells in a single cycle infectivity assay (SCIA-B) is essentially the same as Assay A described above, except that HXB2 virus is employed instead of the IIIb isolate.

HIV integrase = HIV integrase (Human immunodeficiency virus type 1 group M subtype B, UniProt P04585); assay: integrase strand transfer assay (STA); type: biochemical; details: integrase strand transfer; read-out: IC50 in the STA assay

CCOC(=O)c1cnc2c(c1)c(O)c(C(=O)NCc1ccccc1)c(=O)n2O [Example 92, Ethyl 6-[(benzylamino)carbonyl]-5,8-dihydroxy-7-oxo-7,8-dihydro-1,8-naphthyridine-3-carboxylate]
IC50 (HXB2 virus): < 100 µM | IC50 (HIV integrase): < 50 µM

CC(=O)c1c(O)c2cccnc2n(O)c1=O [Example 93, 3-acetyl-1,4-dihydroxy-1,8-naphthyridin-2(1H)-one]
IC50 (HXB2 virus): < 100 µM | IC50 (HIV integrase): > 50 µM

Cc1n[nH]c2c1c(=O)n(O)c1ncccc21 [Example 94, 5-Hydroxy-3-methyl-1,5-dihydro-4H-pyrazolo[4,3-c]-1,8-naphthyridin-4-one]
IC50 (HXB2 virus): < 100 µM | IC50 (HIV integrase): < 50 µM

O=c1c(-c2ccccc2)c(O)c2cc(S(=O)(=O)Nc3ccccc3)cnc2n1O [Example 95, 5,8-Dihydroxy-7-oxo-N,6-diphenyl-7,8-dihydro-1,8-naphthyridine-3-sulfonamide]
IC50 (HXB2 virus): < 100 µM | IC50 (HIV integrase): < 50 µM

O=c1c(-c2ccccc2)c(O)c2cc(S(=O)(=O)NCc3ccccc3)cnc2n1O [Example 96, N-benzyl-5,8-dihydroxy-7-oxo-6-phenyl-7,8-dihydro-1,8-naphthyridine-3-sulfonamide]
IC50 (HXB2 virus): < 100 µM | IC50 (HIV integrase): < 50 µM

CCOC(=O)c1c(N)c2cccnc2n(O)c1=O [Example 97, Ethyl 4-amino-1-hydroxy-2-oxo-1,2-dihydro-1,8-naphthyridine-3-carboxylate]
IC50 (HXB2 virus): < 100 µM | IC50 (HIV integrase): < 50 µM

CCOC(=O)c1c(N)c2cc(-c3ccccc3)cnc2n(O)c1=O [Example 98, Ethyl 4-amino-1-hydroxy-2-oxo-6-phenyl-1,2-dihydro-1,8-naphthyridine-3-carboxylate]
IC50 (HXB2 virus): < 100 µM | IC50 (HIV integrase): < 50 µM

Nc1cc(=O)n(O)c2ncccc12 [Example 99, 4-Amino-1-hydroxy-1,8-naphthyridin-2(1H)-one]
IC50 (HXB2 virus): < 100 µM | IC50 (HIV integrase): < 50 µM

CC(=O)Nc1cc(=O)n(O)c2ncccc12 [Example 100, N-(1-Hydroxy-2-oxo-1,2-dihydro-1,8-naphthyridin-4-yl)acetamide]
IC50 (HXB2 virus): < 100 µM | IC50 (HIV integrase): < 50 µM

O=C(Cc1ccccc1)Nc1cc(=O)n(O)c2ncccc12 [Example 101, N-(1-Hydroxy-2-oxo-1,2-dihydro-1,8-naphthyridin-4-yl)-2-phenylacetamide]
IC50 (HXB2 virus): < 100 µM | IC50 (HIV integrase): < 50 µM

O=C(Nc1cc(=O)n(O)c2ncccc12)c1ccccc1 [Example 102, N-(1-Hydroxy-2-oxo-1,2-dihydro-1,8-naphthyridin-4-yl)benzamide]
IC50 (HXB2 virus): < 100 µM | IC50 (HIV integrase): < 50 µM

O=c1cc(Nc2ccccc2)c2cccnc2n1O [Example 103, 4-Anilino-1-hydroxy-1,8-naphthyridin-2(1H)-one]
IC50 (HXB2 virus): < 100 µM | IC50 (HIV integrase): < 50 µM

O=c1cc(Nc2ccccc2-c2ccccc2)c2cccnc2n1O [Example 104, 4-(Biphenyl-2-ylamino)-1-hydroxy-1,8-naphthyridin-2(1H)-one]
IC50 (HXB2 virus): < 100 µM | IC50 (HIV integrase): < 50 µM

O=c1cc(Nc2cccc(-c3ccccc3)c2)c2cccnc2n1O [Example 105, 4-(Biphenyl-3-ylamino)-1-hydroxy-1,8-naphthyridin-2(1H)-one]
IC50 (HXB2 virus): < 100 µM | IC50 (HIV integrase): < 50 µM

O=c1cc(NC(CN2CCOCC2)c2ccccc2)c2cccnc2n1O (stereo not shown) [Example 107, 1-Hydroxy-4-[(2-morpholin-4-yl-1-phenylethyl)amino]-1,8-naphthyridin-2(1H)-one]
IC50 (HXB2 virus): < 100 µM | IC50 (HIV integrase): < 50 µM

O=c1cc(NC2CCN(Cc3ccccc3)CC2)c2cccnc2n1O [Example 108, 4-[(1-Benzylpiperidin-4-yl)amino]-1-hydroxy-1,8-naphthyridin-2(1H)-one]
IC50 (HXB2 virus): < 100 µM | IC50 (HIV integrase): < 50 µM

CCOC(=O)N1CCC(Nc2cc(=O)n(O)c3ncccc23)CC1 [Example 109, Ethyl 4-[(1-hydroxy-2-oxo-1,2-dihydro-1,8-naphthyridin-4-yl)amino]piperidine-1-carboxylate]
IC50 (HXB2 virus): < 100 µM | IC50 (HIV integrase): < 50 µM

O=c1cc(NCC(c2ccccc2)N2CCOCC2)c2cccnc2n1O (stereo not shown) [Example 110, 1-Hydroxy-4-[(2-morpholin-4-yl-2-phenylethyl)amino]-1,8-naphthyridin-2(1H)-one]
IC50 (HXB2 virus): < 100 µM | IC50 (HIV integrase): < 50 µM

O=c1cc(NC2CCN(Cc3ccccc3)C2)c2cccnc2n1O (stereo not shown) [Example 112, 4-[(1-Benzylpyrrolidin-3-yl)amino]-1-hydroxy-1,8-naphthyridin-2(1H)-one]
IC50 (HXB2 virus): < 100 µM | IC50 (HIV integrase): < 50 µM

O=c1cc(N[C@@H]2CCN(Cc3ccccc3)C2)c2cccnc2n1O [Example 113, 4-{[(3R)-1-Benzylpyrrolidin-3-yl]amino}-1-hydroxy-1,8-naphthyridin-2(1H)-one]
IC50 (HXB2 virus): < 100 µM | IC50 (HIV integrase): < 50 µM

O=c1cc(N[C@H]2CCN(Cc3ccccc3)C2)c2cccnc2n1O [Example 114, 4-{[(3S)-1-Benzylpyrrolidin-3-yl]amino}-1-hydroxy-1,8-naphthyridin-2(1H)-one]
IC50 (HXB2 virus): < 100 µM | IC50 (HIV integrase): < 50 µM

CN(Cc1cccc(Cn2cncn2)c1)c1cc(=O)n(O)c2ncccc12 [Example 116]
IC50 (HXB2 virus): < 100 µM | IC50 (HIV integrase): < 50 µM

O=c1cc(N2CCC[C@@H]2CF)c2cccnc2n1O [Example 117, 4-[(2R)-2-(fluoromethyl)pyrrolidin-1-yl]-1-hydroxy-1,8-naphthyridin-2(1H)-one]
IC50 (HXB2 virus): < 100 µM | IC50 (HIV integrase): < 50 µM

O=c1cc(N2CCCC(F)C2)c2cccnc2n1O (stereo not shown) [Example 118, 4-(3-fluoropiperidin-1-yl)-1-hydroxy-1,8-naphthyridin-2(1H)-one]
IC50 (HXB2 virus): < 100 µM | IC50 (HIV integrase): < 50 µM

O=c1cc(N2CCc3ccccc3C2)c2cccnc2n1O [Example 119, 4-(3,4-dihydroisoquinolin-2(1H)-yl)-1-hydroxy-1,8-naphthyridin-2(1H)-one]
IC50 (HXB2 virus): < 100 µM | IC50 (HIV integrase): < 50 µM

N#Cc1ccc2c(c1)CN(c1cc(=O)n(O)c3ncccc13)CC2 [Example 120, 2-(1-hydroxy-2-oxo-1,2-dihydro-1,8-naphthyridin-4-yl)-1,2,3,4-tetrahydroisoquinoline-7-carbonitrile]
IC50 (HXB2 virus): < 100 µM | IC50 (HIV integrase): < 50 µM

COC(=O)c1ccc2c(c1)CN(c1cc(=O)n(O)c3ncccc13)CC2 [Example 122, 4-[7-(methoxycarbonyl)-3,4-dihydroisoquinolin-2(1H)-yl]-1-hydroxy-1,8-naphthyridin-2(1H)-one]
IC50 (HXB2 virus): < 100 µM | IC50 (HIV integrase): < 50 µM

C[C@@H](Nc1cc(=O)n(O)c2ncccc12)c1ccccc1 [Example 125, 1-hydroxy-4-{[(1R)-1-phenylethyl]amino}-1,8-naphthyridin-2(1H)-one]
IC50 (HXB2 virus): < 100 µM | IC50 (HIV integrase): < 50 µM

O=c1cc(NCc2ccccc2)c2cccnc2n1O [Example 126, 4-(benzylamino)-1-hydroxy-1,8-naphthyridin-2(1H)-one]
IC50 (HXB2 virus): < 100 µM | IC50 (HIV integrase): < 50 µM

CCOC(=O)c1c(Nc2ccccc2)c2cccnc2n(O)c1=O [Example 127, Ethyl 4-anilino-1-hydroxy-2-oxo-1,2-dihydro-1,8-naphthyridine-3-carboxylate]
IC50 (HXB2 virus): < 100 µM | IC50 (HIV integrase): < 50 µM

CCOC(=O)c1c(NCc2ccccc2)c2cccnc2n(O)c1=O [Example 128, Ethyl 4-(benzylamino)-1-hydroxy-2-oxo-1,2-dihydro-1,8-naphthyridine-3-carboxylate]
IC50 (HXB2 virus): < 100 µM | IC50 (HIV integrase): < 50 µM

CCOC(=O)c1c(N[C@@H](CO)c2ccccc2)c2cccnc2n(O)c1=O [Example 129, Ethyl 1-hydroxy-4-{[(1R)-2-hydroxy-1-phenylethyl]amino}-2-oxo-1,2-dihydro-1,8-naphthyridine-3-carboxylate]
IC50 (HXB2 virus): < 100 µM | IC50 (HIV integrase): < 50 µM

CN(Cc1ccccc1)c1cc(=O)n(O)c2ncccc12 [Example 130, 4-[benzyl(methyl)amino]-1-hydroxy-1,8-naphthyridin-2(1H)-one]
IC50 (HXB2 virus): < 100 µM | IC50 (HIV integrase): < 50 µM

O=c1cc(N2CCN(c3ccccc3)CC2)c2cccnc2n1O [Example 131, 1-hydroxy-4-(4-phenylpiperazin-1-yl)-1,8-naphthyridin-2(1H)-one]
IC50 (HXB2 virus): < 100 µM | IC50 (HIV integrase): < 50 µM

O=c1cc(NCCc2ccccc2)c2cccnc2n1O [Example 132, 1-hydroxy-4-[(2-phenylethyl)amino]-1,8-naphthyridin-2(1H)-one]
IC50 (HXB2 virus): < 100 µM | IC50 (HIV integrase): < 50 µM

O=c1cc(N2CCC(Cc3ccccc3)CC2)c2cccnc2n1O [Example 133, 4-(4-benzylpiperidin-1-yl)-1-hydroxy-1,8-naphthyridin-2(1H)-one]
IC50 (HXB2 virus): < 100 µM | IC50 (HIV integrase): < 50 µM

O=c1cc(N2CCN(Cc3ccccc3)CC2)c2cccnc2n1O [Example 136, 4-(4-benzylpiperazin-1-yl)-1-hydroxy-1,8-naphthyridin-2(1H)-one]
IC50 (HXB2 virus): < 100 µM | IC50 (HIV integrase): < 50 µM

O=c1cc(N2CCC(N3CCOCC3)CC2)c2cccnc2n1O [Example 138, 1-hydroxy-4-[4-(4-morpholinyl)-1-piperidinyl]-1,8-naphthyridin-2(1H-one)]
IC50 (HXB2 virus): < 100 µM | IC50 (HIV integrase): < 50 µM

O=c1cc(Nc2ccccc2N2CCCCC2)c2cccnc2n1O [Example 139, 1-hydroxy-4-{[2-(1-piperidinyl)pheny]amino}-1,8-naphthyridin-2(1H-one)]
IC50 (HXB2 virus): < 100 µM | IC50 (HIV integrase): < 50 µM

O=c1cc(NCc2ccccc2Cl)c2cccnc2n1O [Example 141, 4-[(2-chlorobenzyl)amino]-1-hydroxy-1,8-naphthyridin-2(1H-one)]
IC50 (HXB2 virus): < 100 µM | IC50 (HIV integrase): < 50 µM

Cc1ccc(CNc2cc(=O)n(O)c3ncccc23)cc1 [Example 143, 1-hydroxy-4-[(4-methylbenzyl)amino]-1,8-naphthyridin-2(1H-one)]
IC50 (HXB2 virus): < 100 µM | IC50 (HIV integrase): < 50 µM
